Data as given in US11365204B2, “Substituted dihydrothienopyrimidines and their use as phosphodiesterase inhibitors” (UNION therapeutics A/S, priority 2017, dated 2022).

Tests used:
[1] = test system: Human peripheral blood mononuclear cells (PBMC); assay: TNF-α release from LPS-stimulated PBMC; type: cell-based; conditions: Lipopolysaccharide 1 microg/ml, 18 hours, AlphaLISA, read-out: TNF-α IC50 range
Method in brief: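 Thawed human PBMC in serum-free buffer with 0.5% human serum albumin were stimulated with 1 microg/ml LPS alongside titrated compound for 18 h at 37 °C. Supernatant TNFα was measured by AlphaLISA at 615 nm, and IC50 was derived relative to LPS-only and 10 microM reference PDE4 inhibitor controls.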

[2] = target: human PDE4D catalytic domain (UniProt no. Q08499 [S380-L740]) (Homo sapiens (Human), UniProt Q08499); assay: PDE4 assay (TR-FRET, cAMP hydrolysis); type: biochemical; conditions: read-out: PDE4 IC50 range
Method in brief: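 The human PDE4D catalytic domain (S380-L740) was incubated with unlabelled plus FAM-labelled cAMP and titrated compound, briefly. Product AMP was detected by Tb-nanoparticle TR-FRET. IC50 (nM) came from Tb-normalized signal scaled between DMSO and 10 microM reference-inhibitor controls.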

Sequence of human PDE4D catalytic domain (Q08499 380-740): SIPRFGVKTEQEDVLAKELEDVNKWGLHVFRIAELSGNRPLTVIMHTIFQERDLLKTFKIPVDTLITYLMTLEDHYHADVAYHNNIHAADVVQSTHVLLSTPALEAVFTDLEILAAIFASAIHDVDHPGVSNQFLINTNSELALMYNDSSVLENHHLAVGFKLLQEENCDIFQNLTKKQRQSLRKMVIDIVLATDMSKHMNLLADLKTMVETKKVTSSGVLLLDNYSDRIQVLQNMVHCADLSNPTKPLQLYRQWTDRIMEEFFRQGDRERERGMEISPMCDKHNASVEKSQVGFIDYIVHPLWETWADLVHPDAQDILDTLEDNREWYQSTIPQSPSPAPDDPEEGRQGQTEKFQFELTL

SMILES | IC50 [1] [nM] | IC50 [2] [nM]
CC(=O)N1CC[C@H](Nc2nc(N3CC(OC(=O)c4cscn4)C3)nc3c2[S@+](O)CC3)C1 [Example 73, [1-[4-[[(3S)-1-acetyl-pyrrolidin-3-yl]amino]-5-oxido-6,7-dihydro-thieno[3,2-d]pyrimidin-5-ium-2-yl]azetidin-3-yl]thiazole-4-carboxylate] | 100 to 500 | < 100
CC(=O)N1CC[C@H](Nc2nc(N3CC(OC(=O)C4CCOCC4)C3)nc3c2[S@+](O)CC3)C1 [Example 74, [1-[4-[[(3S)-1-acetyl-pyrrolidin-3-yl]amino]-5-oxido-6,7-dihydro-thieno[3,2-d]pyrimidin-5-ium-2-yl]azetidin-3-yl]tetrahydropyran-4-carboxylate] | 100 to 500 | < 100
CC(=O)N1CC[C@@H](Nc2nc(N3CC(OC(=O)C4CCOCC4)C3)nc3c2[S@+](O)CC3)C1 [Example 75, [1-[4-[[(3R)-1-acetyl-pyrrolidin-3-yl]amino]-5-oxido-6,7-dihydro-thieno[3,2-d]pyrimidin-5-ium-2-yl]azetidin-3-yl] tetrahydropyran-4-carboxylate] | > 500 | > 500
CC(=O)N1CCC(Nc2nc(N3CC(OC(=O)c4cscn4)C3)nc3c2[S+](O)CC3)CC1 (stereo not shown) [Example 76, [1-[4-[(1-acetyl-4-piperidyl)amino]-5-oxido-6,7-dihydrothieno[3,2-d]pyrimidin-5-ium-2-yl]-azetidin-3-yl] thiazole-4-carboxylate] | > 500 | 100 to 500
CC(=O)N1CCC(Nc2nc(N3CC(OC(=O)C4CCOCC4)C3)nc3c2[S+](O)CC3)CC1 (stereo not shown) [Example 77, [1-[4-[(1-acetyl-4-piperidyl)amino]-5-oxido-6,7-dihydrothieno[3,2-d]pyrimidin-5-ium-2-yl]azetidin-3-yl] tetra-hydropyran-4-carboxylate] | 100 to 500 | 100 to 500
